Laboratory results reported in PMC7181660, “A novel specific PERK activator reduces toxicity and extends survival in Huntington's disease models” (Scientific Reports, 2020).

Legend:
Experiment in all cases: biochemical
Assay type in all cases: biochemical
panel of 391 kinases [1] = molecular target: panel of 391 kinases (Homo sapiens, UniProt P53779); details: JNK3, MK-28 1 µM, ATP 1 µM
panel of 391 kinases [2] = molecular target: panel of 391 kinases (Homo sapiens, UniProt P08922); details: ROS/ROS1, MK-28 1 µM, ATP 1 µM
panel of 391 kinases [3] = molecular target: panel of 391 kinases (Homo sapiens, UniProt Q15303); details: ERBB4/HER4, MK-28 1 µM, ATP 1 µM
panel of 391 kinases [4] = molecular target: panel of 391 kinases (Homo sapiens, UniProt P68400); details: CK2a, MK-28 1 µM, ATP 1 µM
panel of 391 kinases [5] = molecular target: panel of 391 kinases (Homo sapiens, UniProt P42684); details: ABL2/ARG, MK-28 1 µM, ATP 1 µM
panel of 391 kinases [6] = molecular target: panel of 391 kinases (Homo sapiens, UniProt P12931); details: c-Src, MK-28 1 µM, ATP 1 µM
panel of 391 kinases [7] = molecular target: panel of 391 kinases (Homo sapiens, UniProt P07947); details: YES/YES1, MK-28 1 µM, ATP 1 µM
panel of 391 kinases [8] = molecular target: panel of 391 kinases (Homo sapiens, UniProt P31749); details: AKT1, MK-28 1 µM, ATP 1 µM
panel of 391 kinases [9] = molecular target: panel of 391 kinases (Homo sapiens, UniProt P36897); details: ALK5/TGFBR1, MK-28 1 µM, ATP 1 µM
panel of 391 kinases [10] = molecular target: panel of 391 kinases (Homo sapiens, UniProt Q96GD4); details: Aurora B, MK-28 1 µM, ATP 1 µM
panel of 391 kinases [11] = molecular target: panel of 391 kinases (Homo sapiens, UniProt P54760); details: EPHB4; MK-28 1 µM; ATP 1 µM; read-out: % Enzyme Activity (relative to DMSO controls)
panel of 391 kinases [12] = molecular target: panel of 391 kinases (Homo sapiens, UniProt Q6P2M8); details: CAMK1b, MK-28 1 µM, ATP 1 µM
panel of 391 kinases [13] = molecular target: panel of 391 kinases (Homo sapiens, UniProt Q8IVT5); details: KSR1, MK-28 1 µM, ATP 1 µM
panel of 391 kinases [14] = molecular target: panel of 391 kinases (Homo sapiens, UniProt P80192); details: MLK1/MAP3K9, MK-28 1 µM, ATP 1 µM
panel of 391 kinases [15] = molecular target: panel of 391 kinases (Homo sapiens, UniProt O95819); details: HGK/MAP4K4, MK-28 1 µM, ATP 1 µM
panel of 391 kinases [16] = molecular target: panel of 391 kinases (Homo sapiens, UniProt Q15119); details: kinase PDK2/PDHK2, compound at 1 µM, single dose in duplicates, 1 µM ATP
panel of 391 kinases [17] = molecular target: panel of 391 kinases (Homo sapiens, UniProt Q92918); details: HPK1/MAP4K1, MK-28 1 µM, ATP 1 µM
panel of 391 kinases [18] = molecular target: panel of 391 kinases (Homo sapiens, UniProt P53350); details: PLK1, MK-28 1 µM, ATP 1 µM
panel of 391 kinases [19] = molecular target: panel of 391 kinases (Homo sapiens, UniProt O15111); details: IKKa/CHUK, MK-28 1 µM, ATP 1 µM
panel of 391 kinases [20] = molecular target: panel of 391 kinases (Homo sapiens, UniProt P42681); details: TXK, MK-28 1 µM, ATP 1 µM
panel of 391 kinases [21] = molecular target: panel of 391 kinases (Homo sapiens, UniProt Q02156); details: PKCepsilon, MK-28 1 µM, ATP 1 µM
panel of 391 kinases [22] = molecular target: panel of 391 kinases (Homo sapiens, UniProt Q06418); details: TYRO3/SKY, MK-28 1 µM, ATP 1 µM
panel of 391 kinases [23] = molecular target: panel of 391 kinases (Homo sapiens, UniProt Q04771); details: ALK2/ACVR1, MK-28 1 µM, ATP 1 µM
panel of 391 kinases [24] = molecular target: panel of 391 kinases (Homo sapiens, UniProt Q13163); details: MEK5, MK-28 1 µM, ATP 1 µM
panel of 391 kinases [25] = molecular target: panel of 391 kinases (Homo sapiens, UniProt P19784); details: CK2a2, MK-28 1 µM, ATP 1 µM
panel of 391 kinases [26] = molecular target: panel of 391 kinases (Homo sapiens, UniProt Q07912); details: ACK1, MK-28 1 µM, ATP 1 µM
[27] = read-out: % Enzyme Activity (relative to DMSO controls)

Q: With CN(/N=C\c1ccc(O)c(O)c1)c1nc(-c2ccccc2)cc(-c2ccccc2)n1 [MK-28] as the molecule, how does the “% Enzyme Activity (relative to DMSO controls)” value (panel of 391 kinases [1]) read?
A: Its value is 94.93%.

Q: And the remaining activity at 1 µM (panel of 391 kinases [1]; [27])?
A: Its remaining activity at 1 µM is 99.6%.

Q: What about the “% Enzyme Activity (relative to DMSO controls)” value (panel of 391 kinases [2]) of the same molecule?
A: The value was 99.57%.

Q: What about the remaining activity at 1 µM (panel of 391 kinases [2]; [27]) of the same molecule?
A: The remaining activity at 1 µM was 100%.

Q: What about the “% Enzyme Activity (relative to DMSO controls)” value (panel of 391 kinases [3]) of the same molecule?
A: The value was 97.84%.

Q: What about the remaining activity at 1 µM (panel of 391 kinases [3]; [27]) of the same molecule?
A: Its remaining activity at 1 µM is 99.3%.

Q: And the “% Enzyme Activity (relative to DMSO controls)” value (panel of 391 kinases [4])?
A: Its value is 76.99%.

Q: What about the remaining activity at 1 µM (panel of 391 kinases [4]; [27]) of the same molecule?
A: Its remaining activity at 1 µM is 81.1%.

Q: What about the “% Enzyme Activity (relative to DMSO controls)” value (panel of 391 kinases [5]) of the same molecule?
A: Its value is 99.46%.

Q: What about the remaining activity at 1 µM (panel of 391 kinases [5]; [27]) of the same molecule?
A: The remaining activity at 1 µM was 100%.

Q: What about the “% Enzyme Activity (relative to DMSO controls)” value (panel of 391 kinases [6]) of the same molecule?
A: Its value is 96.32%.

Q: And the remaining activity at 1 µM (panel of 391 kinases [6]; [27])?
A: Its remaining activity at 1 µM is 97.7%.

Q: What about the “% Enzyme Activity (relative to DMSO controls)” value (panel of 391 kinases [7]) of the same molecule?
A: The value was 96.24%.

Q: What about the remaining activity at 1 µM (panel of 391 kinases [7]; [27]) of the same molecule?
A: The remaining activity at 1 µM was 97.6%.

Q: What about the “% Enzyme Activity (relative to DMSO controls)” value (panel of 391 kinases [8]) of the same molecule?
A: Its value is 95.66%.

Q: And the remaining activity at 1 µM (panel of 391 kinases [8]; [27])?
A: Its remaining activity at 1 µM is 96.7%.

Q: And the “% Enzyme Activity (relative to DMSO controls)” value (panel of 391 kinases [9])?
A: Its value is 96.61%.

Q: And the remaining activity at 1 µM (panel of 391 kinases [9]; [27])?
A: Its remaining activity at 1 µM is 97.7%.

Q: And the “% Enzyme Activity (relative to DMSO controls)” value (panel of 391 kinases [10])?
A: Its value is 106.50%.

Q: And the remaining activity at 1 µM (panel of 391 kinases [10]; [27])?
A: Its remaining activity at 1 µM is 107%.

Q: What about the remaining activity at 1 µM (panel of 391 kinases [11]) of the same molecule?
A: The remaining activity at 1 µM was 92.8%.

Q: What about the “% Enzyme Activity (relative to DMSO controls)” value (panel of 391 kinases [12]) of the same molecule?
A: Its value is 94.89%.

Q: What about the remaining activity at 1 µM (panel of 391 kinases [12]; [27]) of the same molecule?
A: The remaining activity at 1 µM was 96.9%.

Q: What about the “% Enzyme Activity (relative to DMSO controls)” value (panel of 391 kinases [13]) of the same molecule?
A: The value was 97.81%.

Q: What about the remaining activity at 1 µM (panel of 391 kinases [13]; [27]) of the same molecule?
A: Its remaining activity at 1 µM is 99.7%.

Q: What about the “% Enzyme Activity (relative to DMSO controls)” value (panel of 391 kinases [14]) of the same molecule?
A: The value was 91.08%.

Q: What about the remaining activity at 1 µM (panel of 391 kinases [14]; [27]) of the same molecule?
A: The remaining activity at 1 µM was 91.3%.

Q: And the “% Enzyme Activity (relative to DMSO controls)” value (panel of 391 kinases [15])?
A: The value was 95.38%.

Q: What about the remaining activity at 1 µM (panel of 391 kinases [15]; [27]) of the same molecule?
A: The remaining activity at 1 µM was 102%.

Q: And the “% Enzyme Activity (relative to DMSO controls)” value (panel of 391 kinases [16])?
A: The value was 99.55%.

Q: And the remaining activity at 1 µM (panel of 391 kinases [16]; [27])?
A: The remaining activity at 1 µM was 103%.

Q: What about the “% Enzyme Activity (relative to DMSO controls)” value (panel of 391 kinases [17]) of the same molecule?
A: The value was 114.23%.

Q: And the remaining activity at 1 µM (panel of 391 kinases [17]; [27])?
A: Its remaining activity at 1 µM is 117%.

Q: What about the “% Enzyme Activity (relative to DMSO controls)” value (panel of 391 kinases [18]) of the same molecule?
A: Its value is 95.85%.

Q: What about the remaining activity at 1 µM (panel of 391 kinases [18]; [27]) of the same molecule?
A: Its remaining activity at 1 µM is 95.9%.

Q: And the “% Enzyme Activity (relative to DMSO controls)” value (panel of 391 kinases [19])?
A: The value was 106.17%.

Q: What about the remaining activity at 1 µM (panel of 391 kinases [19]; [27]) of the same molecule?
A: Its remaining activity at 1 µM is 107%.

Q: What about the “% Enzyme Activity (relative to DMSO controls)” value (panel of 391 kinases [20]) of the same molecule?
A: The value was 93.01%.

Q: And the remaining activity at 1 µM (panel of 391 kinases [20]; [27])?
A: Its remaining activity at 1 µM is 94.1%.

Q: What about the “% Enzyme Activity (relative to DMSO controls)” value (panel of 391 kinases [21]) of the same molecule?
A: The value was 100.42%.

Q: What about the remaining activity at 1 µM (panel of 391 kinases [21]; [27]) of the same molecule?
A: Its remaining activity at 1 µM is 102%.

Q: And the “% Enzyme Activity (relative to DMSO controls)” value (panel of 391 kinases [22])?
A: Its value is 99.89%.

Q: And the remaining activity at 1 µM (panel of 391 kinases [22]; [27])?
A: Its remaining activity at 1 µM is 100%.

Q: And the “% Enzyme Activity (relative to DMSO controls)” value (panel of 391 kinases [23])?
A: Its value is 102.33%.

Q: And the remaining activity at 1 µM (panel of 391 kinases [23]; [27])?
A: Its remaining activity at 1 µM is 108%.

Q: What about the “% Enzyme Activity (relative to DMSO controls)” value (panel of 391 kinases [24]) of the same molecule?
A: The value was 100.81%.

Q: And the remaining activity at 1 µM (panel of 391 kinases [24]; [27])?
A: Its remaining activity at 1 µM is 105%.

Q: What about the “% Enzyme Activity (relative to DMSO controls)” value (panel of 391 kinases [25]) of the same molecule?
A: The value was 73.33%.

Q: What about the remaining activity at 1 µM (panel of 391 kinases [25]; [27]) of the same molecule?
A: Its remaining activity at 1 µM is 78%.

Q: And the “% Enzyme Activity (relative to DMSO controls)” value (panel of 391 kinases [26])?
A: The value was 98.95%.

Q: What about the remaining activity at 1 µM (panel of 391 kinases [26]; [27]) of the same molecule?
A: The remaining activity at 1 µM was 113%.
